Values of other authors, collected in US9066860B2, “Oil-in-water emulsified composition” (SHISEIDO COMPANY, LTD., priority 2009, dated 2015).

Conditions: background art statement

| Compound | Maximum (peak) absorption wavelength |
| --- | --- |
| CCCCC(CC)COC(=O)c1ccc(N(C)C)cc1 (stereo not drawn) [2-ethylhexyl-p-dimethylaminobenzoate] | ~290 nm |
| CCCCC(CC)COC(=O)C=Cc1ccc(OC)cc1 (stereo not drawn) [2-ethylhexyl p-methoxycinnamate] | ~310 nm |
| COc1ccc(C(=O)CC(=O)c2ccc(C(C)(C)C)cc2)cc1 [4-tert-butyl-4′-methoxydibenzoylmethane] | around 360 nm |
